Among the test systems are ACHN renal; IGROV1 ovarian; LOX IMVI melanoma; M14 melanoma; MALME-3M melanoma; MOLT-4 leukemia; NCI-H226 lung; SF-268 CNS; SNB-75 CNS; UO-31 renal.
Common to all, as to assay: growth of human tumour cells (NCI), 48 h

SMILES strings stand for the structures.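 Briefly, cells in 96-well plates were exposed to five compound concentrations for 48 h, and endpoints were estimated by linear interpolation. GI50: concentration for 50% inhibition of growth. TGI: total growth inhibition.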

On to `Cc1ccc(/C=C/C(=O)c2ccc(N)cc2)c(C)c1`, for which the GI50 in the experiment on ACHN renal is 1.77 µM; with IGROV1 ovarian, 1.41 µM; in the experiment with LOX IMVI melanoma, 0.321 µM; with M14 melanoma, 2.45 µM; in the experiment with MALME-3M melanoma, 1.87 µM; with MOLT-4 leukemia, 1.28 µM. Also, the GI50 is 2.8 µM in the experiment on NCI-H226 lung, 1.88 µM with SF-268 CNS, 2.01 µM in the experiment on SNB-75 CNS and 1.83 µM in the experiment on UO-31 renal. Moreover, the TGI in the experiment on ACHN renal amounted to 3.2 µM; with IGROV1 ovarian it was 3.08 µM; with LOX IMVI melanoma, 1.18 µM; in the experiment with M14 melanoma, 7.52 µM; in the experiment with MALME-3M melanoma, 3.57 µM; in the experiment on MOLT-4 leukemia it was 3.69 µM. Moreover, the TGI in the experiment with NCI-H226 lung was determined as 7.25 µM; in the experiment with SF-268 CNS, 3.7 µM; with SNB-75 CNS it was 7.45 µM; in the experiment on UO-31 renal, 3.92 µM.

As to `O=C1c2cccc3cccc(c23)C(=O)N1CCCCN1CCN(CCCCOc2ccc(-c3nc4ccc(N5CCOCC5)cc4[nH]3)cc2)CC1`, the GI50 was 3.19 µM in the experiment on ACHN renal; 61.9 µM in the experiment with IGROV1 ovarian; 9.78 µM in the experiment with LOX IMVI melanoma; over 100 µM in the experiment on M14 melanoma; 29.5 µM in the experiment on MALME-3M melanoma; 3.76 µM with MOLT-4 leukemia. For the same compound, the GI50 in the experiment on NCI-H226 lung, in the experiment on SF-268 CNS, in the experiment on SNB-75 CNS and in the experiment with UO-31 renal was over 100 µM each time. Besides, the TGI in the experiment on ACHN renal, in the experiment with IGROV1 ovarian, with LOX IMVI melanoma, with M14 melanoma, in the experiment on MALME-3M melanoma and in the experiment with MOLT-4 leukemia was over 100 µM each time. Also, the TGI in the experiment on NCI-H226 lung, in the experiment on SF-268 CNS, with SNB-75 CNS and with UO-31 renal was over 100 µM throughout.

Turning to `O=C1CSC(=S)N1Cc1cccnc1`, the GI50 was 6.14 µM with ACHN renal; 4.4 µM in the experiment with IGROV1 ovarian; 2.58 µM in the experiment on LOX IMVI melanoma; 15.3 µM in the experiment on M14 melanoma; 6.71 µM in the experiment with MALME-3M melanoma; 11.6 µM in the experiment on MOLT-4 leukemia. Moreover, the GI50 with NCI-H226 lung is 42.3 µM; with SF-268 CNS it was 5.75 µM; in the experiment on SNB-75 CNS, 16.2 µM; in the experiment with UO-31 renal, 4.61 µM. In addition, the TGI with ACHN renal was 19.5 µM; with IGROV1 ovarian, 19 µM; with LOX IMVI melanoma, 12.5 µM; in the experiment with M14 melanoma, 39.4 µM; in the experiment on MALME-3M melanoma, 25.6 µM; in the experiment on MOLT-4 leukemia, over 100 µM. The TGI was over 100 µM in the experiment on NCI-H226 lung, 23.3 µM in the experiment on SF-268 CNS, 72.5 µM in the experiment with SNB-75 CNS and 17.6 µM in the experiment with UO-31 renal.

For the compound `Cn1c(=O)c2[nH]c(C3CC(=O)CC(c4nc5c([nH]4)c(=O)n(C)c(=O)n5C)N3)nc2n(C)c1=O` (stereo not given), the TGI with ACHN renal, with IGROV1 ovarian, in the experiment on LOX IMVI melanoma, in the experiment with M14 melanoma, in the experiment with MALME-3M melanoma and in the experiment on MOLT-4 leukemia was over 100 µM each time. Further, the TGI in the experiment with NCI-H226 lung, in the experiment with SF-268 CNS, in the experiment with SNB-75 CNS and in the experiment with UO-31 renal was over 100 µM throughout.

With `O=C(Nc1ccc(Cl)cc1)c1ccc([N+](=O)[O-])o1`, the GI50 with ACHN renal is 1.95 µM; with IGROV1 ovarian it was 3.25 µM; with LOX IMVI melanoma it was 1.34 µM; in the experiment with M14 melanoma, 1.99 µM; in the experiment with MALME-3M melanoma it was 2.25 µM; in the experiment with MOLT-4 leukemia it was 7.19 µM. The GI50 is 1.93 µM with NCI-H226 lung, 2.98 µM in the experiment with SF-268 CNS, 1.63 µM with SNB-75 CNS and 1.38 µM in the experiment on UO-31 renal. Besides, the TGI in the experiment on ACHN renal is 4.07 µM; in the experiment on IGROV1 ovarian, 11.2 µM; in the experiment on LOX IMVI melanoma, 2.97 µM; with M14 melanoma, 4.28 µM; in the experiment on MALME-3M melanoma it was 5.21 µM; with MOLT-4 leukemia it was over 100 µM. The TGI stood at 4.6 µM in the experiment on NCI-H226 lung, 11.8 µM in the experiment with SF-268 CNS, 5.38 µM in the experiment with SNB-75 CNS and 2.96 µM in the experiment on UO-31 renal.

Take `CO/N=C(\COc1ccc2c(c1)oc(=O)c1cc(OC)ccc12)c1ccc(F)cc1`: the GI50 with ACHN renal was 16.8 µM; with IGROV1 ovarian, 19.3 µM; in the experiment with LOX IMVI melanoma it was 26 µM; in the experiment with M14 melanoma, 17.8 µM; in the experiment on MALME-3M melanoma, 26.7 µM; in the experiment with MOLT-4 leukemia, 36.6 µM. Moreover, the GI50 is 38.1 µM in the experiment with NCI-H226 lung, 29.9 µM in the experiment on SF-268 CNS, 13.4 µM in the experiment on SNB-75 CNS and 12.7 µM with UO-31 renal. For the same compound, the TGI in the experiment with ACHN renal is 32.1 µM; with IGROV1 ovarian it was 42.8 µM; with LOX IMVI melanoma it was 72.9 µM; with M14 melanoma it was 45.7 µM; in the experiment with MALME-3M melanoma, 84.6 µM; in the experiment on MOLT-4 leukemia, over 100 µM. In addition, the TGI in the experiment with NCI-H226 lung is over 100 µM; with SF-268 CNS, over 100 µM; with SNB-75 CNS, 27.1 µM; in the experiment with UO-31 renal, 32.3 µM.

As for `Cc1cc(Cl)ccc1NC(=O)CC1SC(N)=NC1=O` (stereo not given), the TGI in the experiment with ACHN renal, in the experiment with IGROV1 ovarian, in the experiment on LOX IMVI melanoma, with M14 melanoma, in the experiment on MALME-3M melanoma and in the experiment with MOLT-4 leukemia was over 100 µM throughout. Further, the TGI in the experiment with NCI-H226 lung, in the experiment with SF-268 CNS, in the experiment on SNB-75 CNS and in the experiment on UO-31 renal was over 100 µM throughout.

In the case of `COc1cc(Nc2ncc3c(C)nc(-c4cccc(Oc5ccccc5)c4)n3n2)cc(OC)c1OC`, the GI50 in the experiment with ACHN renal was 1.33 µM; in the experiment on IGROV1 ovarian, 2.32 µM; in the experiment with LOX IMVI melanoma, 3.57 µM; with M14 melanoma, 3.54 µM; in the experiment on MALME-3M melanoma, 5.32 µM; in the experiment with MOLT-4 leukemia, 7.46 µM. Further, the GI50 in the experiment on NCI-H226 lung was 5.93 µM; in the experiment on SF-268 CNS, 6.6 µM; in the experiment with SNB-75 CNS it was 5.14 µM; in the experiment with UO-31 renal it was 1.39 µM. In addition, the TGI in the experiment on ACHN renal is 17.9 µM; in the experiment with IGROV1 ovarian it was over 25 µM; with LOX IMVI melanoma it was over 15.5 µM; with M14 melanoma, 19 µM; in the experiment with MALME-3M melanoma, 18.7 µM; with MOLT-4 leukemia it was over 21.3 µM. Also, the TGI is over 25 µM in the experiment with NCI-H226 lung, over 22.7 µM with SF-268 CNS, over 25 µM in the experiment with SNB-75 CNS and 18.2 µM with UO-31 renal.

The values are drawn from PubChem BioAssay (NCI).
